Values of other authors as cited in patent publication US20080119448A1, “Methods of treating an ocular allergy with low dose dexamethasone” (priority 2006, published 2008).

Conditions: dexamethasone at 0.1%

C[C@@H]1C[C@H]2[C@@H]3CCC4=CC(=O)C=C[C@]4(C)[C@@]3(F)[C@@H](O)C[C@]2(C)[C@@]1(O)C(=O)CO [dexamethasone]
effect on intraocular pressure: increase in intraocular pressure
